# Assay results reported in patent publication US12473551B2, “Small RNA-based drug, preparation and use thereof in prophylaxis and/or treatment of cardiomyopathy” (SOUTHWEST MEDICAL UNIVERSITY, priority 2023, dated 2025).
# “Also recorded” adds a separate entry of the source.
# Key:
# [1] = test system: AC16 cardiomyocytes treated with AGEs; experiment: Pharmacodynamics: CCK8 EC50 against AGEs-induced cardiomyocyte injury; type: cell-based, human; conditions: for protective effect over concentration gradient (relative survival of cardiomyocytes): 1, 10, 20, 30, 40, 50 nM + AGEs 200 μg/mL, 24 h; for EC50: 1-50 nM, 24 h + AGEs 200 μg/mL, CCK8, fitting curve, read-out: half-maximal effect concentration (EC50)
# Experimental: The cell viability was detected by CCK8 assay after 24 h of cell treatment. The absorbance was measured at 450 nm using a microplate reader to calculate the half-maximal effect concentration (EC50), respectively. EC50 was calculated according to the following formula:
# [formula] where the blank refers to the serum-free DMEM.
# NACα protein = NACα protein (Homo sapiens, UniProt Q13765); experiment: Localized surface plasmon resonance (SPR) binding to NACα protein; conditions: DEPC-treated water, 25° C.; for Kd: ratio Koff/Kon
# Excerpt: The affinity of DICAR-JP45 and DICAR-JP for binding to NACα protein was compared using localized surface plasmon resonance (SPR) technology (Wuhan Yangene Biological Technology Co., Ltd.).
# Among them, the dissociation coefficient Koff is used to characterize the constant of the dissociation velocity of DICAR-JP45 and NACα protein, the binding coefficient Kon is used to characterize the constant of the binding velocity of DICAR-JP45 and NACα protein, and the affinity constant KD is the ratio of Koff/Kon, indicating the equilibrium dissociation constant between DICAR-JP45 and NACα protein.
# db/db mice = experiment: Cardiac function of db/db mice after AAV9-DICAR-JP / AAV9-DICAR-JP45 tail vein injection; type: in vivo, mouse; conditions: for E′/a value: db/db mice 1.14, DICAR-JP p<0.05, DICAR-JP45 no statistical significance
# Excerpt: In the present disclosure, Shanghai Jikai Gene Medical Technology Co., Ltd. was commissioned to construct AAV9-DICAR-JP and AAV9-DICAR-JP45 viruses based on the sequences shown in SEQ ID NOS: 12 and 10, including CMV bGlobin EGFP-MCS-WPRE hGH polyA as a viral plasmid construction skeleton element sequence, a vector with the number GV412, and NheI and Hind III as cloning sites; the construction of microRNA up involves extending the precursor sequence of microRNA approximately 100 bp each upstream and downstream of the genome, ensuring the splicing efficiency of microRNA.
# The mice were divided into db/m+AAV9-GFP (mock control, 5×10^11 vg), db/db+AAV9-GFP (5×10^11 vg), db/db+AAV9-DICAR-JP (5×10^11 vg), db/db+AAV9-DICAR-JP45 (5×10^11 vg), and db/db+dapagliflozin (DAPA, 1.5 mg/kg/d) groups. AAV9 viruses were injected into the tail vein of the mice at the age of 4 months. The mice in the db/db group were administered by gastric gavage with DAPA at the age of 5 months, and the mice in the db/m group were controls without gastric gavage of DAPA. The changes of cardiac function were evaluated by small animal echocardiography at the age of 5, 6 and 7 months, respectively, cardiac remodeling was evaluated by Masson staining, and myocardial hypertrophy was evaluated by wheat germ agglutinin (WGA) staining.
# ASC = experiment: Western blot of pyroptosis-related protein ASC in AGEs-treated AC16 cells; type: cell-based, human; conditions: 40 nM, 24 h + AGEs 200 μg/mL, β-actin reference
# Experimental: (§1) The DICAR-JP45 (40 nM) and DICAR-JP sequences were transfected into AC16 cell model for 24 h, respectively. The serum-free medium was replaced for starvation for 2 h, followed by treatment with AGEs (200 μg/mL) for 24 h, respectively. After the cells were treated, the expressions of pyroptosis-related proteins, GSDMD and apoptosis associated speck-like protein containing a CARD (ASC), were detected by Western blot (WB). The internal reference protein was β-actin. The WB was conducted according to the following steps.
# (§2) The cells were rinsed twice with PBS, protein lysate (100 μL/well) was added, and the cells were lysed on ice for 30 min. The lysate was collected and centrifuged at 12000 rpm for 30 min at 4° C. After centrifugation, the supernatant protein was collected. The protein sample was mixed with the protein loading buffer at a 4:1 ratio and heated in a metal bath at 95° C. for 10 min, and the sample was stored at 4° C. […] Signals were detected by using enhanced chemiluminescent reagent, and the Western blot bands were quantitatively analyzed by Image J software. […]
# GSDMD = experiment: Western blot of pyroptosis-related protein GSDMD in AGEs-treated AC16 cells; type: cell-based, human; conditions: 40 nM, 24 h + AGEs 200 μg/mL, β-actin reference
# Experimental: as §1, §2
# [2] = test system: AC16 human cardiomyocytes treated with AGEs; experiment: CCK8 cell viability screening of candidate sequences in AGEs-treated cardiomyocytes; type: cell-based; conditions: for protective effect on cardiomyocytes compared with DICAR-JP / relative cell viability / protective effect at around 48 h: 20 nM, CCK8; for protective effect on cardiomyocytes compared with DICAR-JP: 24 h transfection; for protective effect on cardiomyocytes compared with DICAR-JP / relative cell viability: AGEs 200 μg/mL for 24 h; for protective effect at around 48 h: AGEs 200 μg/mL for 48 h
# Experimental: In this example, CCK8 assay was used to evaluate the protective activity of the candidate sequences against cardiomyocytes treated with advanced glycation end products (AGEs, purchased from Bioss®, Cat #bs-1158P), so as to select a small RNA with a better protective effect on cardiomyocytes. The method included the following steps:
# Cell culture: AC16 human cardiomyocytes (purchased from Guangzhou Jennio Biotech Co., Ltd., derived from ATCC) were cultured in DMEM (High Glucose) Complete Medium (supplemented with 10% fetal bovine serum (FBS) and 1% […]) in a 5% CO2, 37° C. incubator.
# Grouping: Control, AGEs (200 μg/mL, 24 h/48 h), negative control (NC, 20 nM, 24 h), DICAR-JP4 (20 nM, 24 h), DICAR-JP6 (20 nM, 24 h), DICAR-JP18 (20 nM, 24 h), DICAR-JP23 (20 nM, 24 h), DICAR-JP27 (20 nM, 24 h), DICAR-JP28 (20 nM, 24 h), DICAR-JP29 (20 nM, 24 h), DICAR-JP32 (20 nM, 24 h), DICAR-JP40 (20 nM, 24 h), DICAR-JP45 (20 nM, 24 h), and DICAR-JP (20 nM, 24 h).
# Nucleic acid transfection method: Two microliters (μL) each of Lipofectamine® RNAi MAX (Thermo Fisher Scientific RNi MAX, Cat #13778-500) and DICAR-JPN were diluted with Opti-MEM® Medium (50 μL), respectively, and then the two reagents were mixed well and incubated at room temperature for 5 min. The Lipofectamine® RNAi MAX-DICAR-JPN complex was added to the AC16 cell supernatant (50 μL/well, 24 h) on a 24-well plate. Afterward, the complete medium was replaced with serum-free DMEM, and the cell cycle was synchronized for 2 h. AC16 cells were treated with 200 μg/mL AGEs for 24 and 48 h, respectively, and their viability was evaluated by CCK8 assay.
# Evaluation of cell viability by CCK8 assay: The cells were washed twice with phosphate-buffered saline (PBS) in the dark, and serum-free DMEM supplemented with CCK8 (CCK8: DMEM=1:9) was added; the well plate was placed back into the cell culture incubator for further incubation for 1 h, and the absorbance was measured at 450 nm using a microplate reader. The cell viability (%) was calculated according to the following formula: Cell viability=[(A450nmExperiment−A450nmBlank)]/[(A450nmControl−A450nmBlank)]×100%, where the blank refers to the serum-free DMEM.
# [3] = AAV9 tail vein, echocardiography
Sequence,protective effect over concentration gradient (relative survival of cardiomyocytes) [1],EC50 [1] [nM],Koff (NACα protein) [s⁻¹],Kon (NACα protein) [M⁻¹ s⁻¹],Kd (NACα protein) [nM],E′/a value (db/db mice; AAV9 5×10^11 vg tail vein),cardiomyocyte hypertrophy (WGA staining) (db/db mice; AAV9 tail vein),improvement in mouse cardiac function (db/db mice; 3 months after tail vein injection at age 4 months),"ejection fraction (EF) value (db/db mice; AAV9 5×10^11 vg tail vein, 3 months after injection, db/db mice 57.5%) [%]",FS value (db/db mice; [3]),LVVs value (db/db mice; [3]),suppression of expression of ASC (ASC),suppression of expression of GSDMD (GSDMD),efficacy duration [2],protective effect on cardiomyocytes compared with DICAR-JP [2],relative cell viability [2],protective effect at around 48 h [2]
"CAACCUCCGGGGCCACAAUAGCGAGAUUUGUAAGACUCCAGGGCCUCCCAG (chemistry not given here) [DICAR-JP, reference compound]",increase within the concentration gradient range,26.2,0.000866,22600,38.3,1.73,effectively inhibit cardiomyocyte hypertrophy,–,–,–,–,–,–,–,–,–,–
CAACCUCCGGGGCCACAAUAGCGAGAUUUGUAAGACUCUAGGGCCUCCCAG (chemistry not given here) [DICAR-JP45],increase within the concentration gradient range,17.9,0.000152,25000,6.09,1.45,no significant effect on improving myocardial hypertrophy,a certain effect on improving cardiac function,71.07,improve,improve,more significantly compared with DICAR-JP,more significantly compared with DICAR-JP,over 24 h,significant protective effect,higher cardiomyocyte viability; also recorded: close to that of the untreated group,disappeared
"CAACCUCCGGGGCCACAAUAGCGAGAUUUGUAAGAUUCCAGGGCCUCCCAG (listed as RNA, chemistry not given here) [DICAR-JP40]",–,–,–,–,–,–,–,–,–,–,–,–,–,–,significant protective effect,significantly higher than that of the model group,disappeared
